Laboratory results published in US20220000110A1, “COMPOSITIONS COMPRISING PYRIDINE CARBOXYLATE HERBICIDES AND CELLULOSE BIOSYNTHESIS INHIBITOR HERBICIDES” (priority 2018, published 2022).

System: Abutilon theophrasti (velvetleaf)
Assay: Greenhouse postemergence herbicidal effect, visual injury after 20-22 d
Assay type: in vivo
Conditions: ABUTH
How it was run: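 Ratings reflect visual percent injury (0 = no injury, 100 = kill) against solvent-blank controls after postemergence overhead spraying at 187 L/ha. Mixtures paired a pyridine carboxylate herbicide with safener and a CBI partner in 1.25% v/v methylated or esterified seed oil.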

N#CCOC(=O)c1nc(-c2ccc3cc[nH]c3c2F)c(F)c(N)c1Cl [Compound A, cyanomethyl 4-amino-3-chloro-5-fluoro-6-(7-fluoro-1H-indol-6-yl)pyridine-2-carboxylate]
Obs % visual injury (Table 1, Compound A 7.5 g/ha): 68%
Obs % visual injury (Table 1, Compound A 10 g/ha): 80%
Obs % visual injury (Table 2, Compound A 7.5 g/ha): 68%
Obs % visual injury (Table 2, Compound A 10 g/ha): 78%
